Source: patent US6136992A, “2-alkoxy estradiols and derivatives thereof” (The United States of America as represented by the …, priority 1998, dated 2000)
Read-outs that look alike come from different tables or passages of the source.

Tests used:
BT-549 = experiment: NCI screen, breast cancer; type: cell-based; conditions: Homo sapiens, read-out: Log10 GI50, BT-549 (converted)
NCI-H322M = experiment: NCI screen, non-small cell lung cancer; type: cell-based; conditions: Homo sapiens, read-out: Log10 GI50, NCI-H322M (converted)
[1] = tested on: SF-539 central nervous system (CNS) cancer cells; experiment: NCI in vitro anticancer screen, SF-539 CNS cancer; type: cell-based; conditions: Homo sapiens
Description: (§1) The effects of the analogs on cancer cell growth was investigated in the National Cancer Institute (NCI) Developmental Therapeutics Program's in vitro panel of approximately 55 cell lines (Grever et al., Seminars in Oncology 19:622 (1992), Alley et al., Cancer Research 48:589 (1988) and Montes et al., J. National Cancer Institute 83:757 (1991)). Representative results are listed in Table 1 for HOP-62 non-small-cell lung cancer cells, HCT-116 colon cancer cells, SF-539 central nervous system (CNS) cancer cells, UACC-62 melanoma cells, OVCAR ovarian cancer cells, SN12-C renal cancer cells, DU-145 prostate cancer cells, and MDA-MB-435 breast cancer cells.
(§2) ^a The cytotoxicity GI50 values are the concentrations

CCRF-CEM = experiment: NCI screen, leukemia; type: cell-based; conditions: Homo sapiens, read-out: Log10 GI50, CCRF-CEM (converted)
tubulin = experiment: Inhibition of tubulin polymerization (turbidimetry at 350 nm); type: biochemical, bovine; conditions: 26° C., 20 min; read-out: Inhibn of Tubulin Polymn IC50
Protocol: Four instruments were used, and two control reaction mixtures were present in each experiment. […] IC50 values were determined graphically. […]
Inhibition of tubulin polymerization was investigated using electrophoretically homogeneous tubulin from bovine brain.

A549/ATCC = experiment: NCI screen, non-small cell lung cancer; type: cell-based; conditions: Homo sapiens, read-out: Log10 GI50, A549/ATCC (converted)
RXF 393 = experiment: NCI screen, renal cancer; type: cell-based; conditions: Homo sapiens, read-out: Log10 GI50, RXF 393 (converted)
[2] = tested on: HCT-116 colon cancer cells; experiment: NCI in vitro anticancer screen, HCT-116 colon cancer; type: cell-based; conditions: Homo sapiens
Description: as §1, §2

HTC-15 = experiment: NCI screen, colon cancer; type: cell-based; conditions: Homo sapiens, read-out: Log10 GI50, HTC-15 (converted)
NCI-H23 = experiment: NCI screen, non-small cell lung cancer; type: cell-based; conditions: Homo sapiens, read-out: Log10 GI50, NCI-H23 (converted)
[3] = tested on: all human cancer cell lines (approximately 55); experiment: NCI in vitro anticancer screen, all cell lines; type: cell-based
Description: as §1
^b Mean graph midpoint for all human cancer cell lines (approximately

SK-MEL-5 = experiment: NCI screen, melanoma; type: cell-based; conditions: Homo sapiens, read-out: Log10 GI50, SK-MEL-5 (converted)
[4] = tested on: HOP-62 non-small-cell lung cancer cells; experiment: NCI in vitro anticancer screen, HOP-62 non-small-cell lung cancer; type: cell-based; conditions: Homo sapiens
Description: as §1, §2

NCIH-522 = experiment: NCI screen, non-small cell lung cancer; type: cell-based; conditions: Homo sapiens, NCI-H522, read-out: Log10 GI50, NCIH-522 (converted)
ACHN = experiment: NCI screen, renal cancer; type: cell-based; conditions: Homo sapiens, read-out: Log10 GI50, ACHN (converted)
UO-31 = experiment: NCI screen, renal cancer; type: cell-based; conditions: Homo sapiens, read-out: Log10 GI50, UO-31 (converted)
[5] = tested on: MDA-MB-435 breast cancer cells; experiment: NCI in vitro anticancer screen, MDA-MB-435 breast cancer; type: cell-based; conditions: Homo sapiens
Description: The effects of the analogs on cancer cell growth was investigated in the National Cancer Institute (NCI) Developmental Therapeutics Program's in vitro panel of approximately 55 cell lines (Grever et al., Seminars in Oncology 19:622 (1992), Alley et al., Cancer Research 48:589 (1988) and Montes et al., J. National Cancer Institute 83:757 (1991)).

M14 = experiment: NCI screen, melanoma; type: cell-based; conditions: Homo sapiens, read-out: Log10 GI50, M14 (converted)
OVCAR-3 = experiment: NCI screen, ovarian cancer; type: cell-based; conditions: Homo sapiens, read-out: Log10 GI50, OVCAR-3 (converted)
SNB-75 = experiment: NCI screen, CNS cancer; type: cell-based; conditions: Homo sapiens, read-out: Log10 GI50, SNB-75 (converted)
EKVX = experiment: NCI screen, non-small cell lung cancer; type: cell-based; conditions: Homo sapiens, read-out: Log10 GI50, EKVX (converted)
SF-295 = experiment: NCI screen, CNS cancer; type: cell-based; conditions: Homo sapiens, read-out: Log10 GI50, SF-295 (converted)
RPMI-8226 = experiment: NCI screen, leukemia; type: cell-based; conditions: Homo sapiens, read-out: Log10 GI50, RPMI-8226 (converted)
[6] = tested on: OVCAR ovarian cancer cells; experiment: NCI in vitro anticancer screen, OVCAR ovarian cancer; type: cell-based; conditions: Homo sapiens, read-out: cytotoxicity GI50, Ovarian OVCAR
Description: as §1, §2

MCF7 = experiment: NCI screen, breast cancer; type: cell-based; conditions: Homo sapiens, read-out: Log10 GI50, MCF7 (converted)
UACC-62 melanoma cells = experiment: NCI in vitro anticancer screen, UACC-62 melanoma; type: cell-based; conditions: Homo sapiens
Description: as §1, §2

SW-260 = experiment: NCI screen, colon cancer; type: cell-based; conditions: Homo sapiens, read-out: Log10 GI50, SW-260 (converted)

C[C@]12CC[C@@H]3c4cc(OCC(F)(F)F)c(O)cc4C(=NO)C[C@H]3[C@@H]1CC[C@@H]2O [Compound 12, 2-(2',2', 2'-Trifluoroethoxy)-6-Hydroximino-Estra-1,3,5(10)-Triene-3,17β-Diol]
GI50 (BT-549): < 10 nM
GI50 (NCI-H322M): < 10 nM
GI50 ([1]; SF-539, CNS Cancer, read-out: Log10 GI50, SF-539 (converted)): < 10 nM
GI50 ([1]; read-out: cytotoxicity GI50, CNS SF-539): < 10 nM
GI50 (CCRF-CEM): < 10 nM
IC50 (tubulin): 500 nM
GI50 (A549/ATCC): < 10 nM
GI50 (RXF 393): < 10 nM
GI50 ([2]; HCT-116, read-out: cytotoxicity GI50, Colon HCT-116): < 10 nM
GI50 ([2]; HCT-116, Colon Cancer, read-out: Log10 GI50, HCT-116 (converted)): < 10 nM
GI50 (HTC-15): < 10 nM
GI50 (NCI-H23): < 10 nM
GI50 ([3]; 10^-8 molar is the lowest concentration normally investigated, read-out: GI50): < 10 nM
GI50 ([3]; approximately 55 cell lines, read-out: MGM (mean graph midpoint for all human cancer cell lines), GI50): 10 nM
GI50 ([3]; average of all cell lines of Table 2, read-out: Log10 GI50, Average (all cell lines) (converted)): < 10 nM
GI50 (SK-MEL-5): < 10 nM
GI50 ([4]; HOP-62, read-out: cytotoxicity GI50, Lung HOP-62): < 10 nM
GI50 ([4]; HOP-62, Non-Small Cell Lung Cancer, read-out: Log10 GI50, HOP-62 (converted)): < 10 nM
GI50 (NCIH-522): < 10 nM
GI50 (ACHN): < 10 nM
GI50 (UO-31): < 10 nM
GI50 ([5]; MDA-MB-435, read-out: cytotoxicity GI50, Breast MDA-MB-435): < 10 nM
GI50 ([5]; MDA-MB-435, Breast Cancer, read-out: Log10 GI50, MDA-MB-435 (converted)): < 10 nM
GI50 (M14): < 10 nM
GI50 (OVCAR-3): < 10 nM
GI50 (SNB-75): < 10 nM
GI50 (EKVX): < 10 nM
GI50 (SF-295): < 10 nM
GI50 (RPMI-8226): < 10 nM
GI50 [6]: < 10 nM
GI50 (MCF7): < 10 nM
GI50 (UACC-62 melanoma cells; UACC-62, read-out: cytotoxicity GI50, Melanoma UACC-62): < 10 nM
GI50 (UACC-62 melanoma cells; UACC-62, Melanoma, read-out: Log10 GI50, UACC-62 (converted)): < 10 nM
GI50 (SW-260): < 10 nM
